Values quoted from earlier work, collected in patent US20060210650A1, “Supplemental dietary composition for promoting weight loss” (priority 2004, published 2006).

Settings: 8-week study

SMILES: O=C(O)CC(O)(C(=O)O)C(O)C(=O)O (single isomer, unassigned; (-)) [HCA, (−) hydroxycitric acid]
- High-Density Lipoproteins and excretion of urinary fat metabolites: increased
- LDL-cholesterol, triglycerides and serum leptin levels: decrease
